Patent US20260166128A1, “HUMAN AMYLIN ANALOG, AND DERIVATIVE THEREOF AND USE THEREOF” (priority 2022, published 2026)
Numbered stars: 1 amine (or outer) side, 2 acyl side, 3 side chain; on linkers, the order of the positions; unused ones are H or OH. Bridge positions count the residues as written; N and C are the ends. Square brackets hold non-standard residues; d marks the D form. Side chains are listed from the residue outwards. Peptide text beside a SMILES is read from it. * marks the point of attachment. C20 diacid = O=C(O)CCCCCCCCCCCCCCCCCCC(=O)*; γGlu = O=C(O)[C@H](CCC(=O)[*:2])N[*:1]; Aad = N[C@@H](CCCC(=O)O)C(=O)O; Orn = NCCC[C@H](N)C(=O)O; Dab = NCC[C@H](N)C(=O)O; Dap = NC[C@H](N)C(=O)O

Columns and labels:
[1] = Freeze-thaw stability of derivatives (freeze-thaw yield by liquid chromatography); assay type: physicochemical; settings: for Dissolution property: appearance after dissolution at 0.2 mg/ml in 20 mM phosphate buffer solution (PB) (pH 7.0); for Freeze storage property: appearance after overnight storage at −20° C. and thawing to room temperature, 0.2 mg/ml in 20 mM PB (pH 7.0); for Freeze storage yield: concentration of polypeptide after freezing and thawing / concentration before, by liquid chromatography, −20° C. overnight
Procedure, shortened: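 Freeze-thaw yield is the ratio of peptide concentration after versus before one overnight −20° C freeze and room-temperature thaw, both quantified by RP-HPLC of supernatant after centrifugation. Samples were 0.2 mg/ml freeze-dried derivative in 20 mM PB, pH 7.0.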

human amylin receptor = target: T1, human amylin receptor (Homo sapiens, UniProt O60896+P30988); assay: Luciferase assay of amylin derivatives in amylin receptor/CRE-luc CHO cell line; assay type: cell-based; settings: CHO-K1/Ga15/AMY3 CRE-luc cells, 24 hours incubation, F12 medium containing 10% FBS; read-out: EC50
T1 construct: host or cells: CHO-K1/Ga15/AMY3 cells, further stably transfected with a CRE-luciferase plasmid
T1 sequence (P30988 25-474): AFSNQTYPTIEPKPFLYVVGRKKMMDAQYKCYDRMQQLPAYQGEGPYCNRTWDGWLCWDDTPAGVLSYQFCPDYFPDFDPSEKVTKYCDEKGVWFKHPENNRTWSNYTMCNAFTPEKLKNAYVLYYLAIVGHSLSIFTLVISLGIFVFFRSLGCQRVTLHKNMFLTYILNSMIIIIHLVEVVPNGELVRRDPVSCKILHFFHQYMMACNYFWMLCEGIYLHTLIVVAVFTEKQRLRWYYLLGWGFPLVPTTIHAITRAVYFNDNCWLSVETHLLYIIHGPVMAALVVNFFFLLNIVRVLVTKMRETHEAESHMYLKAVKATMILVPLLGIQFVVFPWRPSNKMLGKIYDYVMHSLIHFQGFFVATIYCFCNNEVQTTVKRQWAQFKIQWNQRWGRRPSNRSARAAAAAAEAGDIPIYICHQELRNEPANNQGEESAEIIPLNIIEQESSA
T1 sequence (O60896 24-148 partner): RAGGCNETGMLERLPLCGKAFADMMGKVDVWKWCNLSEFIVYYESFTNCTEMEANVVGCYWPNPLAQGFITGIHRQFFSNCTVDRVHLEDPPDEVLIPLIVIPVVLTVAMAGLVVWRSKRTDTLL
Procedure: The experiment was intended to detect the activity or efficacy of the amylin derivatives on a human amylin receptor in vitro by luciferase assay.
50 μL of growth medium (F12 medium containing 10% FBS) was added into each well of a white 96-well plate, and the stably transfected amylin/CRE-lue CHO cells were inoculated into the white 96-well plate at a density of about 20,000 cells/well for activity determination.

| Compound | Dissolution property [1] | Freeze storage property [1] | Freeze storage yield [1] [%] | EC50 (human amylin receptor) [nM] |
| --- | --- | --- | --- | --- |
| CC[C@H](C)[C@H](NC(=O)[C@@H]1CCCN1C(=O)[C@H](CCCCNC(=O)CC[C@H](NC(=O)CCCCCCCCCCCCCCCCCCC(=O)O)C(=O)O)NC(=O)[C@H](CC(C)C)NC(=O)[C@H](CC(N)=O)NC(=O)[C@H](CC(N)=O)NC(=O)[C@H](CO)NC(=O)[C@H](CO)NC(=O)[C@H](Cc1c[nH]cn1)NC(=O)[C@H](CCCNC(=N)N)NC(=O)[C@H](CC(C)C)NC(=O)[C@H](Cc1ccccc1)NC(=O)[C@H](CN)NC(=O)[C@H](C)NC(=O)[C@H](CC(C)C)NC(=O)[C@H](CCCNC(=N)N)NC(=O)[C@H](CCC(N)=O)NC(=O)[C@@H](NC(=O)[C@H](C)NC(=O)[C@@H]1CSSC[C@H](NC(=O)[C@@H](N)CCCNC(=N)N)C(=O)N[C@@H](CC(N)=O)C(=O)N[C@@H]([C@@H](C)O)C(=O)N[C@@H](C)C(=O)N[C@@H]([C@@H](C)O)C(=O)N1)[C@@H](C)O)C(=O)N[C@@H](CC(C)C)C(=O)N1CCC[C@H]1C(=O)N1CCC[C@H]1C(=O)N[C@H](C(=O)N[C@@H](CC(N)=O)C(=O)N[C@H](C(=O)NCC(=O)N[C@@H](CO)C(=O)N[C@@H](CC(N)=O)C(=O)N[C@H](C(=O)N1CCC[C@H]1C(N)=O)[C@@H](C)O)C(C)C)[C@@H](C)O [PD045] (H-RCNTATCATQRLA[Dap]FLRHSSNNLK([γGlu-C20 diacid])PILPPTNVGSNTP-NH2; disulfide 2-7 (inferred); N-terminus assumed) | Clear | Clear | 95.59 | 0.364 |
| CC[C@H](C)[C@H](NC(=O)[C@@H]1CCCN1C(=O)[C@H](CCCCNC(=O)CC[C@H](NC(=O)CCCCCCCCCCCCCCCCCCC(=O)O)C(=O)O)NC(=O)[C@H](CC(C)C)NC(=O)[C@H](CC(N)=O)NC(=O)[C@H](CC(N)=O)NC(=O)[C@H](CO)NC(=O)[C@H](CO)NC(=O)[C@H](Cc1c[nH]cn1)NC(=O)[C@H](CCCN)NC(=O)[C@H](CC(C)C)NC(=O)[C@H](Cc1ccccc1)NC(=O)[C@H](CCC(=O)O)NC(=O)[C@H](C)NC(=O)[C@H](CC(C)C)NC(=O)[C@H](CCCNC(=N)N)NC(=O)[C@H](CCC(N)=O)NC(=O)[C@@H](NC(=O)[C@H](C)NC(=O)[C@@H]1CSSC[C@H](NC(=O)[C@@H](N)CCCNC(=N)N)C(=O)N[C@@H](CC(N)=O)C(=O)N[C@@H]([C@@H](C)O)C(=O)N[C@@H](C)C(=O)N[C@@H]([C@@H](C)O)C(=O)N1)[C@@H](C)O)C(=O)N[C@@H](CC(C)C)C(=O)N1CCC[C@H]1C(=O)N1CCC[C@H]1C(=O)N[C@H](C(=O)N[C@@H](CC(N)=O)C(=O)N[C@H](C(=O)NCC(=O)N[C@@H](CO)C(=O)N[C@@H](CC(N)=O)C(=O)N[C@H](C(=O)N1CCC[C@H]1C(N)=O)[C@@H](C)O)C(C)C)[C@@H](C)O [PD046] (H-RCNTATCATQRLAEFL[Orn]HSSNNLK([γGlu-C20 diacid])PILPPTNVGSNTP-NH2; disulfide 2-7 (inferred); N-terminus assumed) | Clear | Clear | 101.35 | 1.68 |

The remaining lines, values ahead:

| Dissolution property [1] | Freeze storage property [1] | Freeze storage yield [1] [%] | EC50 (human amylin receptor) [nM] | Compound |
| --- | --- | --- | --- | --- |
| Clear | Muddy | 100.81 | 0.772 | CC[C@H](C)[C@H](NC(=O)[C@@H]1CCCN1C(=O)[C@H](CCCCNC(=O)CC[C@H](NC(=O)CCCCCCCCCCCCCCCCCCC(=O)O)C(=O)O)NC(=O)[C@H](CC(C)C)NC(=O)[C@H](CC(N)=O)NC(=O)[C@H](CC(N)=O)NC(=O)[C@H](CO)NC(=O)[C@H](CO)NC(=O)[C@H](Cc1c[nH]cn1)NC(=O)[C@H](CCCNC(=N)N)NC(=O)[C@H](CC(C)C)NC(=O)[C@H](Cc1ccccc1)NC(=O)[C@H](CCC(=O)O)NC(=O)[C@H](C)NC(=O)[C@H](CC(C)C)NC(=O)[C@H](CCCNC(=N)N)NC(=O)[C@H](CCC(N)=O)NC(=O)[C@@H](NC(=O)[C@H](C)NC(=O)[C@@H]1CSSC[C@H](NC(=O)[C@@H](N)CCCNC(=N)N)C(=O)N[C@@H](CC(N)=O)C(=O)N[C@@H]([C@@H](C)O)C(=O)N[C@@H](C)C(=O)N[C@@H]([C@@H](C)O)C(=O)N1)[C@@H](C)O)C(=O)N[C@@H](CC(C)C)C(=O)N1CCC[C@H]1C(=O)N1CCC[C@H]1C(=O)N[C@H](C(=O)N[C@@H](CC(N)=O)C(=O)N[C@H](C(=O)NCC(=O)N[C@@H](CO)C(=O)N[C@@H](CC(N)=O)C(=O)N[C@H](C(=O)N[C@@H](Cc1ccc(O)cc1)C(N)=O)[C@@H](C)O)C(C)C)[C@@H](C)O [PD017] (H-RCNTATCATQRLAEFLRHSSNNLK([γGlu-C20 diacid])PILPPTNVGSNTY-NH2; disulfide 2-7 (inferred); N-terminus assumed) |
| Clear | Clear | 49.45 | 1.13 | CC[C@H](C)[C@H](NC(=O)[C@@H]1CCCN1C(=O)[C@H](CCCCNC(=O)CC[C@H](NC(=O)CCCCCCCCCCCCCCCCCCC(=O)O)C(=O)O)NC(=O)[C@H](CC(C)C)NC(=O)[C@H](CC(N)=O)NC(=O)[C@H](CC(N)=O)NC(=O)[C@H](CO)NC(=O)[C@H](CO)NC(=O)[C@H](Cc1c[nH]cn1)NC(=O)[C@H](CCCNC(=N)N)NC(=O)[C@H](CC(C)C)NC(=O)[C@H](Cc1ccccc1)NC(=O)[C@H](CCCC(=O)O)NC(=O)[C@H](C)NC(=O)[C@H](CC(C)C)NC(=O)[C@H](CCCNC(=N)N)NC(=O)[C@H](CCC(N)=O)NC(=O)[C@@H](NC(=O)[C@H](C)NC(=O)[C@@H]1CSSC[C@H](NC(=O)[C@@H](N)CCCNC(=N)N)C(=O)N[C@@H](CC(N)=O)C(=O)N[C@@H]([C@@H](C)O)C(=O)N[C@@H](C)C(=O)N[C@@H]([C@@H](C)O)C(=O)N1)[C@@H](C)O)C(=O)N[C@@H](CC(C)C)C(=O)N1CCC[C@H]1C(=O)N1CCC[C@H]1C(=O)N[C@H](C(=O)N[C@@H](CC(N)=O)C(=O)N[C@H](C(=O)NCC(=O)N[C@@H](CO)C(=O)N[C@@H](CC(N)=O)C(=O)N[C@H](C(=O)N1CCC[C@H]1C(N)=O)[C@@H](C)O)C(C)C)[C@@H](C)O [PD043] (H-RCNTATCATQRLA[Aad]FLRHSSNNLK([γGlu-C20 diacid])PILPPTNVGSNTP-NH2; disulfide 2-7 (inferred); N-terminus assumed) |
| Clear | Clear | 84.90 | 2.62 | CC[C@H](C)[C@H](NC(=O)[C@@H]1CCCN1C(=O)[C@H](CCCCNC(=O)CC[C@H](NC(=O)CCCCCCCCCCCCCCCCCCC(=O)O)C(=O)O)NC(=O)[C@H](CC(C)C)NC(=O)[C@H](CC(N)=O)NC(=O)[C@H](CC(N)=O)NC(=O)[C@H](CO)NC(=O)[C@H](CO)NC(=O)[C@H](Cc1c[nH]cn1)NC(=O)[C@H](CCCNC(=N)N)NC(=O)[C@H](CC(C)C)NC(=O)[C@H](Cc1ccccc1)NC(=O)[C@H](CCN)NC(=O)[C@H](C)NC(=O)[C@H](CC(C)C)NC(=O)[C@H](CCCNC(=N)N)NC(=O)[C@H](CCC(N)=O)NC(=O)[C@@H](NC(=O)[C@H](C)NC(=O)[C@@H]1CSSC[C@H](NC(=O)[C@@H](N)CCCNC(=N)N)C(=O)N[C@@H](CC(N)=O)C(=O)N[C@@H]([C@@H](C)O)C(=O)N[C@@H](C)C(=O)N[C@@H]([C@@H](C)O)C(=O)N1)[C@@H](C)O)C(=O)N[C@@H](CC(C)C)C(=O)N1CCC[C@H]1C(=O)N1CCC[C@H]1C(=O)N[C@H](C(=O)N[C@@H](CC(N)=O)C(=O)N[C@H](C(=O)NCC(=O)N[C@@H](CO)C(=O)N[C@@H](CC(N)=O)C(=O)N[C@H](C(=O)N1CCC[C@H]1C(N)=O)[C@@H](C)O)C(C)C)[C@@H](C)O [PD044] (H-RCNTATCATQRLA[Dab]FLRHSSNNLK([γGlu-C20 diacid])PILPPTNVGSNTP-NH2; disulfide 2-7 (inferred)) |
